These are literature values, as cited in PMC9322122, “Development of (4-Phenylamino)quinazoline Alkylthiourea Derivatives as Novel NF-κB Inhibitors” (Pharmaceuticals, 2022).

One series relates to IKKα. Conditions: read-out: cell-free IC50 IKKα; cited from earlier work.
Another series deals with TNFα production. Conditions: THP-1 macrophage model cell line; read-out: IC50 for suppression of TNFα production; cited from earlier work.
The subject of the next series is IL-1β production. Conditions: THP-1 macrophage model cell line; read-out: IC50 for suppression of IL-1β production; cited from earlier work.
The next series deals with TNFα. Conditions: cited from earlier work.
For a further series, the system named is IKKβ. Conditions: read-out: cell-free IC50 IKKβ; cited from earlier work.
The test system of a further series is 26S proteasome. Further details: method as in PMID 20420526. To be noted: read-out: IC50, inhibition of the activity of the 26S proteasome; cited from earlier work.
The next series deals with NF-κB p65 subunit. Further details: method as in PMID 28448872. Conditions: covalent modification of the p65 subunit; read-out: IC50, interfering with the binding of NF-κB to its DNA recognition site; cited from earlier work.
The subject of the next series is IKKα/β. Further details: method as in PMID 10768472. To be noted: read-out: IC50, targeting IKKα/β; cited from earlier work.

With `Cc1ccc2nc(NCCN)c3ncc(C)n3c2c1` [BMS-345541], the IC50 was 4 µM with IKKα, around 5 µM with TNFα production, around 5 µM in the series on IL-1β production and 300 nM in the series on IKKβ. In addition, the “inhibition of TNFα in mice after administration of LPS” value in the series on TNFα is “effective in the inhibition of TNFα in mice”.

Regarding `C[C@@]12OC(=O)[C@]1([C@@H](O)[C@@H]1C=CCCC1)NC(=O)[C@@H]2CCCl` [salinosporamide A], the IC50 in the series on 26S proteasome is 1.3 nM.

On to `C=C1C(=O)O[C@@H]2C[C@@H](C)[C@@H]3C=CC(=O)[C@@]3(C)[C@@H](O)[C@H]12` [helenalin], for which the IC50 in the series on NF-κB p65 subunit was 5 µM.

For cacospongiolide B, the IC50 in the series on IKKα/β was 260 nM.
